Active and inactive are the calls of the source. The rule behind the calls is not given here.
Experiments:
Streptomyces [1] = experiment: Growth inhibition in Streptomyces 85E at 5 ug/disk by hyphae formation inhibition assay; type: functional, organism-based
Streptomyces [2] = experiment: Growth inhibition in Streptomyces 85E at 20 ug/disk by hyphae formation inhibition assay; type: functional, organism-based
Streptomyces [3] = experiment: Growth inhibition in Streptomyces 85E at 2.5 ug/disk by hyphae formation inhibition assay; type: functional, organism-based
Streptomyces [4] = experiment: Growth inhibition in Streptomyces 85E at 10 ug/disk by hyphae formation inhibition assay; type: functional, organism-based
Streptomyces [5] = experiment: Growth inhibition in Streptomyces 85E assessed as clear zone of inhibition at 20 ug/disk by hyphae formation inhibition assay; type: functional; settings: read-out: IZ
Streptomyces [6] = experiment: Growth inhibition in Streptomyces 85E assessed as bald phenotype around disk at 5 ug/disk by hyphae formation inhibition assay; type: functional; settings: read-out: IZ
Streptomyces [7] = experiment: Growth inhibition in Streptomyces 85E assessed as clear zone of inhibition at 10 ug/disk by hyphae formation inhibition assay; type: functional; settings: read-out: IZ
Streptomyces [8] = experiment: Growth inhibition in Streptomyces 85E assessed as bald phenotype around disk at 20 ug/disk by hyphae formation inhibition assay; type: functional; settings: read-out: IZ
Streptomyces [9] = experiment: Growth inhibition in Streptomyces 85E assessed as bald phenotype around disk at 10 ug/disk by hyphae formation inhibition assay; type: functional; settings: read-out: IZ
Streptomyces [10] = experiment: Growth inhibition in Streptomyces 85E assessed as bald phenotype around disk at 2.5 ug/disk by hyphae formation inhibition assay; type: functional; settings: read-out: IZ
Streptomyces [11] = experiment: Growth inhibition in Streptomyces 85E assessed as clear zone of inhibition at 5 ug/disk by hyphae formation inhibition assay; type: functional; settings: read-out: IZ

Row | SMILES | inhibition zone (IZ) (Streptomyces [1]) | inhibition zone (IZ) (Streptomyces [2]) | inhibition zone (IZ) (Streptomyces [3]) | inhibition zone (IZ) (Streptomyces [4]) | zone of inhibition at 20 µg/disc (Streptomyces [5]) [mm] | zone of inhibition at 5 µg/disc (Streptomyces [6]) [mm] | zone of inhibition at 10 µg/disc (Streptomyces [7]) [mm] | zone of inhibition at 20 µg/disc (Streptomyces [8]) [mm] | zone of inhibition at 10 µg/disc (Streptomyces [9]) [mm] | zone of inhibition at 2.5 µg/disc (Streptomyces [10]) [mm] | zone of inhibition at 5 µg/disc (Streptomyces [11]) [mm]
1 | C=C(C)C(O)Cc1cc(C(=O)Nc2c(O)c3ccc(O)c(C)c3oc2=O)ccc1O (configuration not stated) | inactive | inactive | inactive | inactive |  |  |  |  |  |  | 
2 | CO[C@@H]1[C@@H](OC(N)=O)[C@@H](O)[C@H](Oc2ccc3c(O)c(NC(=O)c4ccc5c(c4)CC(C(C)C)O5)c(=O)oc3c2C)OC1(C)C (some centres not stated) [COMABIOCIN B] |  |  | inactive |  | 14 | 10 | 12 |  |  |  | 
3 | CO[C@@H]1[C@@H](OC(N)=O)[C@@H](O)[C@H](Oc2ccc3c(O)c(NC(=O)c4ccc5c(c4)CC(C(C)(C)O)O5)c(=O)oc3c2C)OC1(C)C (some centres not stated) [COUMABIOCIN A] | inactive |  | inactive | inactive | 13 |  |  |  |  |  | 
4 | CO[C@@H]1[C@@H](OC(N)=O)[C@@H](O)[C@H](Oc2ccc3c(O)c(NC(=O)c4ccc5c(c4)CCC(C)(C)O5)c(=O)oc3c2C)OC1(C)C [COUMABIOCIN C] | inactive |  | inactive |  | 15 |  | 10 |  |  |  | 
5 | CO[C@@H]1[C@@H](OC(N)=O)[C@@H](O)[C@H](Oc2ccc3c(O)c(NC(=O)c4ccc5c(c4)CC(O)C(C)(C)O5)c(=O)oc3c2C)OC1(C)C (some centres not stated) [COUMABIOCIN D] | inactive |  | inactive | inactive | 10 |  |  |  |  |  | 
6 | C=C(C)C(O)Cc1cc(C(=O)Nc2c(O)c3ccc(O[C@@H]4OC(C)(C)[C@H](OC)[C@@H](OC(N)=O)[C@H]4O)c(C)c3oc2=O)ccc1O (some centres not stated) [COUMABIOCIN E] | inactive |  | inactive | inactive | 11 |  |  |  |  |  | 
7 | CO[C@@H]1[C@@H](O)[C@@H](OC(N)=O)[C@H](Oc2ccc3c(O)c(NC(=O)c4ccc(O)c(CC=C(C)C)c4)c(=O)oc3c2C)OC1(C)C [ISONOVOBIOCIN] | inactive |  | inactive |  |  |  |  | 10 | 9 |  | 
8 | CO[C@@H]1[C@@H](OC(N)=O)[C@@H](O)[C@H](Oc2ccc3c(O)c(NC(=O)c4ccc(O)c(CC=C(C)C)c4)c(=O)oc3c2C)OC1(C)C [NOVOBIOCIN] |  |  |  |  | 20 |  | 18 |  |  | 18 | 15
